From US20050129662A1 (priority 2002, published 2005)

What was measured:
Format in all cases: in vivo
[1] = tested on: peronospora (Plasmopara viticola); test: Open-field fight against peronospora on muscat vine (Examples 2-6); conditions: 11 interventions
From the text: (§1) All tables and related theses reproduced herein result from an experimental activity carried out in the open field following precise protocols and experimental guidelines.
(§2) The aim of this experimental activity was that of verifying the possibility of reducing the amount of the chemical formulation employed, while keeping the activity of same unchanged towards adversities to be fought (peronospora, mildew and Panonychus ulmi), thanks to addition of the adjuvant, preferably soybean oil.
(§3) The methodologies for detection of the efficiency results were selected depending on: the pathology to be fought, infection, % spreading of the disease for peronospora, mildew and acid rot, and depending on the count of the mite number per leaf in the fight tests against Panonychus ulmi.
(§4) Among the great number of statistical tests interpreting the experimental data items, Duncan test in the scientific field is considered as one of the best evaluation instruments for significance of the experimental data items. […] Example: 12.5a 0.9b 0.3b

Lactuga sativa = test: Composite chemical weedkilling, spraying on trays of lettuce plants (Examples 12-15); conditions: 1 intervention; for % devitalization T + 14: 14 days from treatment; for % devitalization T + 27: 27 days from treatment
From the text: • Treatment: 300 l/ha of solution were sprayed • Experimental pattern: spraying on 4 trays, each containing 8 lettuce plants • Flower survey: carried out after 14 days from treatment (T), (T+14), and after 27 days (T+27), stating the devitalization degree in percentage
Test target: Composite chemical weedkilling (Lactuga sativa)
With reference to the active ingredients employed in examples 12-15, it was an aim of this experimental research to verify the influence of the emulsion addition on the herbicide activity towards a target weed belonging to the compositae family. By virtue of the high herbicide activity of weedkillers, when applied in the amounts on the label, and in order to highlight possible efficiency variations of same among the different theses dealt with, all active ingredients were employed alone in amounts reduced by ⅓ and reduced by ⅓ in an extemporaneous mixture with the emulsion being the object of the present invention. Example: should the active ingredients have been employed to the amounts reproduced on the label, it would have been very likely to obtain a 100% devitalization of the weed with the active ingredient alone and in a mixture with the emulsion.
As to the methodologies for efficiency detection, a visual estimation was selected, by allocating a % value to the overall devitalizing activity observed on the target plant.

Panonychus ulmi = test: Open-field fight against Panonychus ulmi on muscat vine (Examples 8-10); conditions: 1 intervention
From the text: as §1, §2, §3, §4

[2] = tested on: mildew (Uncinula necator); conditions: muscat vine; 4795 g or ml/ha; 6 interventions

## CO/C=C(/C(=O)OC)c1ccccc1Oc1cc(Oc2ccccc2C#N)ncn1 [Azoxystrobin]
[1]; 250 g or ml/ha
  % infection on bunches: 0.0 b %
  % spreading on bunches: 0.0 b %
  Action Degree: 100

## CCCCCCCC(=O)Oc1c(Br)cc(C#N)cc1Br [Bromoxynil octanoate]
Lactuga sativa; 356 g or ml/ha
  % devitalization T + 14: 56.0%
  % devitalization T + 27: 67.5%

## O=C(O)c1nc(Cl)ccc1Cl [Clopyradil]
Lactuga sativa; 100 g or ml/ha
  % devitalization T + 14: 85.0%
  % devitalization T + 27: 87.5%

## COc1ccc(C(=CC(=O)N2CCOCC2)c2ccc(Cl)cc2)cc1OC [Dimethomorph]
[1]; 1050 g or ml/ha
  % infection on bunches: 0.0 b %
  % spreading on bunches: 0.0 b %
  Action Degree: 100

## O=C(NC(=O)c1c(F)cccc1F)Nc1ccc(Oc2ccc(C(F)(F)F)cc2Cl)cc1F [Flufenoxuron]
Panonychus ulmi; 50 g or ml/ha
  Action Degree: 68.0
  Mites per leaf 1: 1.1 b
  Mites per leaf 2: 3.0 b

## O=C1c2ccccc2C(=O)N1SC(Cl)(Cl)Cl [Folpet]
[1]; 1200 g or ml/ha
  % infection on bunches: 0.0 b %
  % spreading on bunches: 0.0 b %
  Action Degree: 100

## O=C(O)CNCP(=O)(O)O [Gliphosate]
Lactuga sativa; 360 g or ml/ha
  % devitalization T + 14: 32.0%
  % devitalization T + 27: 90.0%

## C[C@@H]1[C@@H](c2ccc(Cl)cc2)SC(=O)N1C(=O)NC1CCCCC1 [Hexythiazox]
Panonychus ulmi; f.c. 30 g or ml/ha
  Action Degree: 91.6
  Mites per leaf 1: 0.0 b
  Mites per leaf 2: 0.6 b

## O=c1[nH]c2c(c(=O)n1C1CCCCC1)CCC2 [Lenacil]
Lactuga sativa; 150 g or ml/ha
  % devitalization T + 14: 11.0%
  % devitalization T + 27: 30.0%

## S1SSSSSSS1 [Sulphur]
[2]
  % infection on bunches: 2.2 b %
  % spreading on bunches: 12.5 bd %
  Action Degree: 85.7

## CCc1nn(C)c(C(=O)NCc2ccc(C(C)(C)C)cc2)c1Cl [Tebufenpyrad]
Panonychus ulmi; 125 g or ml/ha
  Action Degree: 80.8
  Mites per leaf 1: 0.4 b
  Mites per leaf 2: 1.1 b

## Fosetyl-Aluminium
[1]; 960 g or ml/ha
  % infection on bunches: 0.3 b %
  % spreading on bunches: 0.8 b %
  Action Degree: 87.2

## Mancozeb
[1]; 1470 g or ml/ha
  % infection on bunches: 0.2 b %
  % spreading on bunches: 0.3 b %
  Action Degree: 97.4
